The record followed here is patent US12139458B2, “(2,5-dioxopyrrolidin-1-yl)(phenyl)-acetamide derivatives and their use in the treatment of neurological diseases” (UNIWERSYTET JAGIELLONSKI, priority 2019, dated 2024).

The structures appear in SMILES notation. Structures can show the parent of a compound that is named as a salt.

Data set [1] concerns male Swiss albino mice (CD-1). As to the kind of experiment: Maximal electroshock seizure test (MES). The following applies: screening, 100 mg/kg i.p., 0.5 h, mice. In kind it is in vivo. Here is the method:
(§1) The male Swiss albino mice (CD-1) weighing 18-26 g were used. All procedures were carried out in accordance with applicable Polish and international guidelines on the ethics of animal testing, after obtaining appropriate institutional approval. The substances were administered intraperitoneally (i.p.), in 1% aqueous solution of Tween, as single injections with a volume of 10 ml/kg, 30 minutes before the given test. Screening was performed on groups consisted of 4 mice. The average effective dose (ED50) in given test and toxic dose in the rotarod test (TD50) was estimated based on the results obtained in 3-4 groups of animals consisting of 6 mice. All tests were carried out based on the procedures described in the specialist literature.
In the MES test, the seizures were induced by an electrical stimulus lasting of 0.2 s duration, 500 V voltage and 25 mA intensity. The electrical stimuli was generated using an electric shock generator (Rodent shocker, Type 221, Hugo Sachs Elektronik, Germany) and delivered to the animal using electrodes placed on the auricles. The study was conducted 30 minutes after intraperitoneal administration of the compounds at various doses. During the experiment, the number of animals that experienced a seizure episode in the form of tonic extension of the hind limbs was counted (Kamiński, K.; Rapacz, A.; Łuszczki, J. J.; Latacz, G.; Obniska, J.; Kieć-Kononowicz, K.; Filipek, B. Bioorg. Med. Chem. 2015, 23, 2548-2561; Castel-Branco, M. M.; Alves, G. L.; Figueiredo, I. V.; Falcão, A. C.; Caramona, M. M. Methods Find. Exp. Clin. Pharmacol. 2009, 31, 101-106).
(§2) To perform a statistical evaluation of the results, one-way ANOVA variance analysis and Dunnett's post hoc test (multiple comparison test) were used. The value at the significance level p<0.05 was considered statistically significant.

Data set [2] deals with male Swiss albino mice (CD-1). In words: Subcutaneous pentylenetetrazole seizure test (scPTZ). The class given is in vivo. The settings on record: screening, 100 mg/kg i.p., 0.5 h, mice; for responders at 100 mg/kg: Mus musculus, ip, read-out: scPTZ: number of mice protected/number of mice tested (converted). Here is the method:
as §1
In the scPTZ test, seizures were induced by subcutaneous administration of pentylenetetrazole (PTZ) at a dose of 100 mg/kg. This caused clonic seizures with accompanying loss of the righting reflex. Test compounds were administered 30 minutes before the experiment. After PTZ administration, the animals were placed individually in transparent containers and observed for a period of 30 minutes for the occurrence of clonic seizures. During this time, the latency of the first onset of clonic seizures, defined as clonus of the whole body lasting at least 3 seconds with loss of the righting reflex and the number of seizure episodes during the test were noted and compared with control group. The absence of clonic convulsions within the observed time period was interpreted as the compound's ability to protect against PTZ-induced seizures (Ferreri, G.; Chimirri, A.; Russo, E.; Gitto, R.; Gareri, P.; De Sarro, A.; De Sarro, G. Pharmacol. Biochem. Behav. 2004, 77, 85-94; Łączkowski, K.; Sałat, K.; Misiura, K.; Podkowa, A.; Malikowska, N. J. Enzyme Inhib. Med. Chem. 2016, 31, 1576-82).
as §2

Data set [3] relates to male Swiss albino mice (CD-1). As to the kind of experiment: Psychomotor seizure test 6 Hz (32 mA). The class given is in vivo. The settings on record: screening, 100 mg/kg i.p., 0.5 h, mice. Here is the method: as §1
In the 6 Hz test, seizures were induced by an electric stimulus of 32 mA and/or 44 mA and a frequency of 6 pulses per second. An electrical pulse was generated using an electric shock generator (ECT Unit 57800; Ugo Basile, Gemonio, Italy) and delivered to the animal using ocular electrodes. Before starting the test, the eye surface was gently moistened with a solution of local anesthetic (1% lidocaine solution). The study was conducted 30 minutes after intraperitoneal administration of the compounds at various doses. An electrical pulse was delivered continuously for a period of 3 seconds, followed by observation of the animal for a period of 10 seconds. During this time, immobility or stun associated with rearing, forelimb clonus, twitching of the vibrissae and Straub's tail were observed. These symptoms persist throughout the observation period, indicating the occurrence of psychomotor seizures in mice. Mice resuming normal behavior within 10 s after stimulation were considered as protected (Barton, M. E.; Klein, B. D.; Wolf, H. H.; White, H. S. Epilepsy Res. 2001, 47, 217-227; Wojda, E.; Wlaź, A.; Patsalos, P. N.; Łuszczki, J. J. Epilepsy Res. 2009, 86, 163-174).
as §2

The compound `O=C(C(Cc1ccccc1)N1C(=O)CCC1=O)N1CCN(c2cccc(C(F)(F)F)c2)CC1` (centres unmarked) (as salt: salt) [Example 23, 1-(1-Oxo-3-phenyl-1-(4-(3-(trifluoromethyl)phenyl)piperazin-1-yl)propan-2-yl)pyrrolidine-2,5-dione] came in with a melting point of 126.1 to 127.2 °C.
In turn, `O=C(C(c1ccccc1)N1C(=O)CCC1=O)N1CCN(c2ccc(C(F)(F)F)cc2)CC1` (racemic) [Compound 7, 1-(2-Oxo-1-phenyl-2-(4-(4-(trifluoromethyl)phenyl)piperazin-1-yl)ethyl)pyrrolidine-2,5-dione] gave a melting point of 173.2 to 174.3 °C. Moreover, the “MES: number of mice protected/number of mice tested” value in data set [1] is reported as “¾”. For the same compound, in data set [2], the “scPTZ: number of mice protected/number of mice tested” value is “¾”. In addition, in data set [3], the “6 Hz (32 mA): number of mice protected/number of mice tested” value is reported as “¾”.
`O=C(C(c1ccccc1)N1C(=O)CCC1=O)N1CCN(c2cc(C(F)(F)F)cc(C(F)(F)F)c2)CC1` (racemic) [Compound 8, 1-(2-(4-(3,5-Bis(trifluoromethyl)phenyl)piperazin-1-yl)-2-oxo-1-phenylethyl)pyrrolidine-2,5-dione] yielded a melting point of 228.1 to 229.4 °C. Besides, the responders at 100 mg/kg in data set [1] (Mus musculus, ip, read-out: MES: number of mice protected/number of mice tested (converted)) is 100%. Besides, the responders at 100 mg/kg in data set [2] is 100%. For the same compound, in data set [3], the “6 Hz (32 mA): number of mice protected/number of mice tested” value was “¾”.
On to `O=C(C(c1ccccc1)N1C(=O)CCC1=O)N1CCN(c2ccc(OC(F)(F)F)cc2)CC1` (racemic) [Compound 11, 1-(2-Oxo-1-phenyl-2-(4-(4-(trifluoromethoxy)phenyl)piperazin-1-yl)ethyl)pyrrolidine-2,5-dione], for which the melting point lay within 102.3 to 103.5 °C. Besides, in data set [1], the “MES: number of mice protected/number of mice tested” value was “¾”. In addition, the responders at 100 mg/kg in data set [2] is 50%. Moreover, the “6 Hz (32 mA): number of mice protected/number of mice tested” value in data set [3] is “¾”.
With `O=C([C@@H](c1ccccc1)N1C(=O)CCC1=O)N1CCN(c2cccc(SC(F)(F)F)c2)CC1` [(R)-12], in data set [1], the “MES: number of mice protected/number of mice tested” value is 4/4. For the same compound, the “scPTZ: number of mice protected/number of mice tested” value in data set [2] is “¼”. Further, in data set [3], the “6 Hz (32 mA): number of mice protected/number of mice tested” value is reported as 4/4.
For `O=C(C(c1ccccc1)N1C(=O)CCC1=O)N1CCN(c2ccc3oncc3c2)CC1` (centres unmarked) [Compound 17, 1-(2-(4-(1,2-Benzoxazol-5-il)piperazin-1-yl)-2-oxo-1-phenylethyl)pyrrolidine-2,5-dione], the “MES: number of mice protected/number of mice tested” value in data set [1] is “¾”. The “scPTZ: number of mice protected/number of mice tested” value in data set [2] was “¾”. The “6 Hz (32 mA): number of mice protected/number of mice tested” value in data set [3] is “¾”.
`O=C(C(Cc1ccccc1)N1C(=O)CCC1=O)N1CCN(c2ccccc2)CC1` (centres unmarked) [Compound 21, 1-(1-Oxo-3-phenyl-1-(4-phenylpiperazin-1-yl)prop-2-yl)pyrrolidine-2,5-dione]: the melting point was 121.7 to 123.2 °C.
`O=C(C(Cc1ccccc1)N1C(=O)CCC1=O)N1CCN(c2cccc(Cl)c2)CC1` (centres unmarked) [Compound 22, 1-(1-(4-(3-Chlorophenyl)piperazin-1-yl)-1-oxo-3-phenylpropan-2-yl)pyrrolidine-2,5-dione] returned a melting point of 114.3 to 116.2 °C.
The compound `O=C(C(Cc1ccccc1)N1C(=O)CCC1=O)N1CCN(c2cccc(-c3ccccc3)c2)CC1` (centres unmarked) [Compound 24, 1-(1-(4-([1,1′-Biphenyl]-3-yl)piperazin-1-yl)-1-oxo-3-phenylpropan-2-yl)pyrrolidine-2,5-dione] yielded a melting point of 119.1 to 120 °C.
The same measure, in the same setting: the figure for `O=C(C(Cc1ccccc1)N1C(=O)CCC1=O)N1CCN(c2cccc(OC(F)(F)F)c2)CC1` (centres unmarked) [Compound 25, 1-(1-Oxo-3-phenyl-1-(4-(3-(trifluoromethoxy)phenyl)piperazin-1-yl)propan-2-yl)pyrrolidine-2,5-dione] is 104.4 to 105.5 °C.
